The values below come from PubChem BioAssay AID179 (DTP/NCI, 2004).

Several values for one entry are separate records, joined by “and”; a condition that tells them apart may be missing. Equal values may be shown once. Activity calls are given as the source filed them.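 The calls were made as follows: active = compounds giving half or more protection of infected cells from virus-caused growth loss, again on retest; inactive = the rest.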

The assay has as its system CEM cells HIV-1 protection, formazan growth assay. Nature of the assay: NCI AIDS Antiviral Assay. To be noted: for IC50: measured here: growth of uninfected CEM cells. Put shortly:
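Soluble formazan readout of cell growth; CEM cells ± HIV-1; 5 drug concs. ≥50% protection → retest; ≥50% again = moderately active; reproducible 100% = confirmed active.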

The term EC50 denotes the midpoint of the concentration-response curve. As usually defined, the IC50 is the concentration at which inhibition is half-maximal. Low values mean greater potency in that assay, high ones weaker potency in that assay. With `N#Cc1cn(-c2c3ccccc3nc3ccccc23)c(=O)[nH]c1=O`, the EC50 is over 214 µM and the IC50 was found to be 0.288 µM.
Turning to `Clc1ccc(CSc2ccc3nncc(SCc4ccc(Cl)c(Cl)c4)c3c2)cc1Cl`, the EC50 is over 41.7 µM and the IC50 turned out to be 37.2 µM.
The matching figures for `CNC(=O)c1n[nH][nH]c1=O`: over 200 µM and over 200 µM.
The matching figures for `N#C/C(=C\c1ccc(O)c(O)c1)C(=O)OCc1ccccc1COC(=O)/C(C#N)=C/c1ccc(O)c(O)c1`: over 200 µM and 8.71 µM.
The corresponding values for `[Br][Sn]12[c]3ccccc3CN(Cc3cccc[c]31)Cc1cccc[c]12` are over 200 µM and over 200 µM.
Regarding `O=C1/C(=C/c2ccc(OCc3ccccc3)cc2)CCC/C1=C\c1ccc(OCc2ccccc2)cc1`, the EC50 was over 2.95 µM and the IC50 is over 2.95 µM.
In the case of `CCOP(=S)(NN=C1CCCC1)OCC`, the EC50 was over 200 µM and the IC50 is over 200 µM.
Regarding `O=C(O)c1cc(O)cc(O)c1N=Nc1ccc(/C=C/c2ccc(N=Nc3c(O)cc(O)cc3C(=O)O)cc2)cc1`, the EC50 was 70.8 µM and 25.1 µM; the IC50 is 132 µM and > 100 µM.
As to `CC(=O)O.[Ag]`, the EC50 was over 64.6 µM and the IC50 was found to be 18.2 µM.
The matching figures for `CCN(CC)c1ccc(N=Nc2ccc(-c3nc4cccn(C)c-4n3)cc2)cc1`: over 7.41 µM and over 7.41 µM.
As to `COC(=O)N1[C@H]2Cc3c(OC)c(C)c(OC)c(OC)c3[C@@H]1/C(=C\c1cc(OC)c(OC)c(C)c1OC)N(Cc1ccccc1)C2=O`, the outcome was inactive.
For the compound `O=C1C(=O)c2ccccc2C(O)=C1C(C1=C(O)c2ccccc2C(=O)C1=O)c1ccc(C(C2=C(O)c3ccccc3C(=O)C2=O)C2=C(O)c3ccccc3C(=O)C2=O)cc1`, the EC50 was over 200 µM and the IC50 turned out to be 9.55 µM.
The matching figures for `O=C(NC12CC3CC(CC(C3)C1)C2)C(=O)c1c[nH]c2ccc([N+](=O)[O-])cc12`: over 200 µM and 30.2 µM.
The corresponding values for `S=C(Cc1ccc2c(c1)Sc1ccccc1O2)N1CCOCC1` are over 200 µM and 27.5 µM.
The matching figures for `Nc1nc2ccc(CO)nc2c(=O)[nH]1`: over 200 µM and over 200 µM.
Take `O=C1CCC2(c3ccccc3)Nc3ccc(Cl)cc3N12` (configuration not stated): the result was inactive.
For the compound `Cc1ccc(S(=O)(=O)ON/N=C2/C3OC3[C@@H]3CCCC[C@H]23)cc1` (some centres not stated), the EC50 was over 389 µM and the IC50 was found to be 195 µM.
The matching figures for `COc1ccc(-c2nc3ccccc3s2)cc1S(=O)(=O)O`: over 105 µM and 95.5 µM.
The matching figures for `COC(=O)C12CCC(C(=O)OC)(Cc3c(c4ccccc4n3S(=O)(=O)c3ccccc3)C1)C2=O` (configuration not stated): over 200 µM and 85.1 µM.
The corresponding values for `CCCCCCCCCCCCn1[nH]c(C)c(C(=S)SCCCCCCCC)c1=O` are over 57.5 µM and 56.2 µM.
For `O=C1c2ccccc2C(=O)N1C/C=N/NS(=O)(=O)c1ccc2ccccc2c1`, the EC50 was over 240 µM and the IC50 is over 240 µM.
As to `[Ni+2].[O-]/C(=N\N=C/c1ccc(C(F)(F)F)cc1)c1ccncc1.[O-]/C(=N\N=C\c1ccc(C(F)(F)F)cc1)c1ccncc1`, the EC50 is over 100 µM and the concentration for half-maximal inhibition (IC50) was found to be 16.6 µM.
The corresponding values for `Cn1c2c(c3ccccc31)CCN1OCC=C[C@@H](C(=O)O)[C@@H]21` are over 200 µM and over 200 µM.
The corresponding values for `CN(Cc1cnc2nc(N)nc(N)c2n1)c1ccc(C(=O)NC(CCC(=O)NCC(P(=O)(O)O)P(=O)(O)O)C(=O)O)cc1` (configuration not stated) are over 200 µM and 1.23 µM.
The corresponding values for `COc1ccc(/C(Cl)=C/c2cc(OC)ccc2OC)cc1` are over 200 µM and 13.5 µM.
Take `Clc1ccc2c(c1)Oc1ccccc1C=N2`: the EC50 is over 363 µM and the IC50 amounted to 6.31 µM.
In the case of `O=C1C(c2ccccc2)=[N+]([O-])c2ccccc21`, the result was inactive.
With `CCCC(=O)c1c(NOC2OC(COC(C)=O)C(OC(C)=O)C(OC(C)=O)C2OC(C)=O)nc(OC)n(C)c1=O` (configuration not stated), the EC50 was over 63.1 µM and the IC50 was over 63.1 µM.
As for `O=C1C(Br)=C[C@H]2C3C=CC(Br)(C3=O)[C@@H]12` (some centres not stated), the EC50 is over 794 µM and the IC50 was found to be 3.72 µM.
Regarding `CC(=O)OCC12CC(OC(C)=O)C(C)=CC1O[C@@H]1C(O)[C@@H](O)[C@@]2(C)[C@@]12CO2` (some centres not stated), the EC50 is over 66.1 µM and the IC50 came to 0.0282 µM.
The matching figures for `Cc1ccc2c(c1CCCC(C)(C)O)C(=O)C(=O)C(C(C)C)=C2O`: over 380 µM and 132 µM.
The matching figures for `O=C1NC(=O)C2C3C(C(O)(c4ccccc4)c4ccccn4)=CC(/C3=C(\c3ccccc3)c3ccccn3)C12` (configuration not stated): over 200 µM and 53.7 µM.
Consider `Nc1nc(N)c(CCCc2ccccc2)c(N)n1`, for which the result was inactive.
For the compound `NC(N)=NS(=O)(=O)c1ccc(NNc2c3ccccc3nc3c(C(=O)Nc4ccc(S(=O)(=O)N=C(N)N)cc4)cccc23)cc1`, the EC50 was over 200 µM and the half-maximal inhibitory concentration (IC50) was 33.1 µM.
The matching figures for `CCOC(=O)c1ccc(N=C2SC(=S)N(c3ccc(F)cc3)C2=Nc2ccc(C(=O)OCC)cc2)cc1`: over 20 µM and 6.76 µM.
On to `Cn1nnnc1SCC1=C(C(=O)O)N2C(=O)C(NC(=O)C(OC=O)c3ccccc3)C2SC1` (configuration not stated), for which the EC50 is over 200 µM and the IC50 was over 200 µM.
For the compound `Cc1[nH]c(-c2ccccc2)c(O)c1C(=O)OC12CC3CC(CC(C3)C1)C2`, the EC50 was over 200 µM and the IC50 was found to be 30.9 µM.
For `CCOP(=O)(OCC)/C(C#N)=C/c1cnc(-c2ccccc2)[nH]1`, the EC50 was over 200 µM and the IC50 stood at 102 µM.
The matching figures for `CCOC(=O)C1(Sc2ccccc2)CCC2c3[nH]c4ccccc4c3CCN2C1=O` (configuration not stated): over 12.3 µM and over 12.3 µM.
The matching figures for `CC1(C)OC(=S)N(c2ccccc2)C12C=Cc1cc3ccccc3cc1O2` (configuration not stated): over 200 µM and 79.4 µM.
The matching figures for `CCOC(=O)c1nc2cc(C(F)(F)F)ccc2nc1Nc1ccc(C(=O)OC)s1`: over 50.1 µM and 30.9 µM.
Regarding `O=c1c(-c2ccccc2)nnc2n(Cc3ccccc3)c3ccccc3n12`, the EC50 is over 200 µM and the IC50 is 112 µM.
Take `O=C(O)CC(NC(=O)OCc1ccccc1)C(=O)O` (configuration not stated): the EC50 was over 200 µM and the IC50 was over 200 µM.
For `CN(C)c1ncnc2c1ncn2C1C=CC(COS(N)(=O)=O)C1` (configuration not stated), the EC50 was over 200 µM and the IC50 is over 200 µM.
Regarding `C=CCC1(C#N)C(=S)NC2=C(C(=O)CC(C)(C)C2)C1c1ccccc1` (configuration not stated), the EC50 is over 200 µM and the IC50 was over 200 µM.
With `N#Cc1c(C#N)c(SSc2c(C#N)c(C#N)c(N)n2-c2ccccc2)n(-c2ccccc2)c1N`, the EC50 was over 20 µM and the 50% inhibitory concentration (IC50) was 1.95 µM.
The matching figures for `CCOC(=O)C(F)(F)C(=O)OCC`: over 200 µM and over 200 µM.
The corresponding values for `CCCCCCCCCCCC(=O)OCC1OC(OC)C(NC(=O)N(CCCl)N=O)C(O)C1O` (configuration not stated) are over 26.3 µM and 22.4 µM.
The corresponding values for `NC(=Nc1c([N+](=O)[O-])cnc2ccccc12)N1CCOCC1` are over 200 µM and 126 µM.
For the compound `CCO[C@@H]1N(C2CC(N=[N+]=[N-])C(CO)O2)C(=O)NC(=O)[C@]1(C)Cl` (some centres not stated), the EC50 is over 200 µM and the IC50 was over 200 µM.
`O=C1CN(c2ccccc2)CC(=O)N2Cc3ccccc3CN12`: the EC50 was over 44.7 µM and the IC50 is over 44.7 µM.
As to `COc1c(OC)c(OC)c2c(c1OC)OC(c1ccc(O)cc1)CC2=O` (configuration not stated), the EC50 is over 200 µM and the IC50 stood at 28.8 µM.
The matching figures for `COc1cc2c3c(c1)ncn3C(=O)CS2`: over 200 µM and over 100 µM.
Consider `Cc1ccc(C2(Br)C(=O)c3ccccc3C2=O)cc1`, for which the EC50 is over 200 µM and the IC50 was over 200 µM.
As for `CC(=O)NC(CCCCN(Cc1ccccc1)C(=O)N(C)N=O)C(=O)NCc1ccccc1` (configuration not stated), the EC50 was over 110 µM and the IC50 came out at 93.3 µM.
The corresponding values for `O=C1CCCC(=O)C1=C(O)CCCCCCCCCCc1ccccc1` are over 38 µM and over 38 µM.
The matching figures for `CNC(=S)NNC1=NCCCCN1`: over 200 µM and 110 µM.
In the case of `Cc1cc(Cl)cc(S)c1S(=O)(=O)Nc1nnc2ccc3ccccc3n12`, the EC50 is over 200 µM and the IC50 was 93.3 µM.
The corresponding values for `COc1ccc(N2C(=O)/C(=C\c3cccc(Oc4ccccc4)c3)SC2c2ccccc2)cc1` (configuration not stated) are over 200 µM and 8.51 µM.
The matching figures for `O=C1CCC2(CC1CC(Sc1ccccc1)Sc1ccccc1)OCCO2` (configuration not stated): over 200 µM and 41.7 µM.
As to `COc1cc(/C=C/c2ccc(/C=C/c3cc(OC)c(OC)c(OC)c3)cc2)cc(OC)c1OC`, the outcome was inactive.
For the compound `CCC(=O)N=c1sc(SCc2ccccc2)nn1C(=O)SC` (tested in a mixture with another compound), the EC50 is over 200 µM and the IC50 is 10.7 µM.
As to `O=c1[nH]c(N/N=C\C(O)C(O)C(O)CO)nc2ccccc12` (configuration not stated), the EC50 is over 200 µM; the IC50 is > 200 µM and 97.7 µM.
As for `C=C(c1nc2ccc(Cl)cc2[nH]c1=O)C(O)c1ccc(C(O)C(=O)c2nc3ccc(Cl)cc3[nH]c2=O)cc1` (configuration not stated), the EC50 was over 162 µM and the IC50 is 12 µM.
Consider `O=C1Nc2ccccc2/C1=c1/sc2nc3ccccc3n2c1=O`, for which the result was inactive.
For the compound `CCOC(=O)C(C)(NC(=O)c1ccc(NCc2ccc3nc(NC(=O)c4ccccc4)nc(NC(=O)c4ccccc4)c3c2)cc1)C(=O)OCC`, the EC50 is over 50.1 µM and the IC50 came out at 32.4 µM.
The matching figures for `COC(=O)c1nc(NN)[nH]c(=O)c1CCCCCc1c(C(=O)OC)[nH]c(NN)cc1=O`: over 6.31 µM and over 6.31 µM.
The matching figures for `CCOC(=O)/C(=C/c1ccc(C#N)cc1)N(CC)CC`: over 251 µM and over 251 µM.
The corresponding values for `CCc1cccc(CC)c1NC1=CC(=O)C(=O)c2ccccc21` are over 23.4 µM and over 23.4 µM.
